Measured values as given in patent US12343472B2, “Powder preparation, cartridge, and device” (Shin Nippon Biomedical Laboratories, Ltd., priority 2018, dated 2025).
Where “and” joins values, the source holds several entries; their conditions need not be identical. Equal values may be shown once. Read-outs that look alike come from different tables or passages of the source.

What was measured:
[1] = Blood oxytocin concentration in monkey (EIA); type: in vivo, cynomolgus monkey; conditions: for AUC0-t / Cmax: blood oxytocin
Procedure: (§1) In order to measure the blood oxytocin concentration, blood was collected from the femoral vein with a syringe (dispensed into an EDTA-2K-containing blood collection tube) before administration and 2, 5, 10, 30, 60, 120, 240 and 480 minutes after administration (9 times in total). In order to measure the cerebrospinal fluid oxytocin concentration, cerebrospinal fluid was collected via a catheter indwelled in the cisterna magna before administration and 10, 30, 60, 120, 240 and 480 minutes after administration (7 times in total). The oxytocin concentration was measured by an EIA method involving an Oxytocin Enzyme Immunoassay Kit: Extraction-Free (Peninsula Laboratories International). This test was performed after being approved by the Animal Experimentation Ethics Committee of SNBL, Ltd.

[2] = in vivo; conditions: male, cynomolgus monkey, iv
Procedure: as §1

[3] = intravenous, individual animals

- Blood oxytocin concentration ([1]; 120 min, intravenous, individual animals): 0.00 ng/mL (5×) and 1.10 ng/mL
- Blood oxytocin concentration ([1]; 240 min, intravenous, average n=6): 0.00 ng/mL
- Blood oxytocin concentration ([1]; 240 min, intravenous, individual animals): 0.00 ng/mL
- Blood oxytocin concentration ([1]; 480 min, intravenous, average n=6): 0.00 ng/mL
- Blood oxytocin concentration ([1]; 480 min, intravenous, individual animals): 0.00 ng/mL
- AUC0-t ([1]; male, cynomolgus monkey, blood, iv, intravenous, average n=6, read-out: AUC0-t (converted)): 37.5 ng·h/mL
- Cmax ([1]; male, cynomolgus monkey, blood, iv, intravenous, average n=6, read-out: Cmax): 206 ng/mL
- AUC0-t ([1]; male, cynomolgus monkey, blood, iv, intravenous, individual animals, read-out: AUC0-t (converted)): 38.1 ng·h/mL
- Cmax ([1]; male, cynomolgus monkey, blood, iv, intravenous, individual animals, read-out: Cmax): 222 ng/mL
- level at […] ([1]; male, cynomolgus monkey, blood, 2 min, intravenous, average n=6): 206 ng/mL
- level at […] ([1]; male, cynomolgus monkey, blood, 5 min, intravenous, average n=6): 94.7 ng/mL
- level at […] ([1]; male, cynomolgus monkey, blood, 10 min, intravenous, average n=6): 52.3 ng/mL
- level at 0.5 h ([1]; male, cynomolgus monkey, blood, 30 min, intravenous, average n=6): 10.9 ng/mL
- level at 1 h ([1]; male, cynomolgus monkey, blood, 60 min, intravenous, average n=6): 3.02 ng/mL
- level at 2 h ([1]; male, cynomolgus monkey, blood, 120 min, intravenous, average n=6): 0.18 ng/mL
- level at 0.5 h [2]: 0.204 ng/mL
- level at 1 h [2]: 0.11 ng/mL
- level at 2 h [2]: 0.057 ng/mL
- level at 4 h [2]: 0.005 ng/mL
Structure (SMILES): CC[C@H](C)[C@@H]1NC(=O)[C@H](Cc2ccc(O)cc2)NC(=O)[C@@H](N)CSSC[C@@H](C(=O)N2CCC[C@H]2C(=O)N[C@@H](CC(C)C)C(=O)NCC(N)=O)NC(=O)[C@H](CC(N)=O)NC(=O)[C@H](CCC(N)=O)NC1=O [Comparative Example 13, oxytocin]
- Blood oxytocin concentration ([1]; 2 min, oxytocin solution (0.4 mg/mL) intravenous, individual animals): 222.00 ng/mL and 246.00 ng/mL and 205.00 ng/mL and 168.00 ng/mL and 202.00 ng/mL and 190.00 ng/mL
- Blood oxytocin concentration ([1]; 5 min, intravenous, individual animals): 110.00 ng/mL and 101.00 ng/mL and 116.00 ng/mL and 68.00 ng/mL and 68.40 ng/mL and 105.00 ng/mL
- Blood oxytocin concentration ([1]; 10 min, intravenous, individual animals): 48.40 ng/mL and 64.20 ng/mL and 55.10 ng/mL and 40.40 ng/mL and 50.00 ng/mL and 55.70 ng/mL
- Blood oxytocin concentration ([1]; 30 min, intravenous, individual animals): 10.50 ng/mL and 15.00 ng/mL and 11.80 ng/mL and 7.10 ng/mL and 9.60 ng/mL and 11.60 ng/mL
- Blood oxytocin concentration ([1]; 60 min, intravenous, individual animals): 2.80 ng/mL (2×) and 4.50 ng/mL and 2.90 ng/mL and 2.50 ng/mL and 2.60 ng/mL
- AUC0-t [1, 3]: 47.345 ng·h/mL and 39.252 ng·h/mL and 28.695 ng·h/mL and 34.345 ng·h/mL and 37.415 ng·h/mL
- Cmax [1, 3]: 246.00 ng/mL and 205.00 ng/mL and 168.00 ng/mL and 202.00 ng/mL and 190.00 ng/mL
